Measured values reported in patent US20100010035A1, “Novel Dual Action Receptors Antagonists (Dara) at the Ati and Eta Receptors” (priority 2006, published 2010).

Tests used:
human AT1 receptor = target: T1, human AT1 receptor (Homo sapiens, UniProt P30556); test: AT1 functional assay (FLIPR Ca efflux, Angiotensin-II at EC80); type: cell-based; conditions: CHO cells over-expressing full length human AT1 receptor; Angiotensin-II as agonist at EC80
T1 construct: CHO cell stably over-expressing the full length human AT1 receptor; expressed in transfected cells
T1 sequence (P30556 1-359): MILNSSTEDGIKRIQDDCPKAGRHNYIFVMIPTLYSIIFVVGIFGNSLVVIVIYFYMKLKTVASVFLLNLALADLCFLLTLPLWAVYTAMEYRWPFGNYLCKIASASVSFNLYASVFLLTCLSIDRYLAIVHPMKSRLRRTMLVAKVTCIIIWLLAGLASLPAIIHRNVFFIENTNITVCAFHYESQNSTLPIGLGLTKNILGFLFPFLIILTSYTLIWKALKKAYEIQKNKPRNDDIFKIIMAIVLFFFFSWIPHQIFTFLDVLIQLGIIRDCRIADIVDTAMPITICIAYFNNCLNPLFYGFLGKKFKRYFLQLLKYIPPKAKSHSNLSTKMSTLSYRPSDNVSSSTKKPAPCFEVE
Procedure: CHO cell stably over-expressing the full length human AT1 receptor was cultured in DMEM (Gibco) with 10% FCS (Hyclone) and selection maintained using 0.5 mg/ml G418 (Gibco). Cell at 70% confluence were trypsnised, resuspended in media and counted. 20,000 cells/well were plated into black polystyrene 384-well plates with transparent bottoms and allowed 16 hours to adhere. The cells were loaded with Flou-4 (TEFLABS, USA) dye in HBSS (Gibco) for 1 hour and then washed in HBSS and 0.6 μl of diluted compounds in DMSO added to the cells in 30 μd of HBSS in Multimek liquid handling system (Beckman, USA). The cells were then placed in the Fluorometric Imaging Plate Readers (FLIPR, Molecular Devices, USA) and 20 μl of Angiotensin-II peptide as agonist (at EC80) in HBSS was added in the instrument.
(§1) The Ca efflux was followed for 2 mins and the maximum height of the peak was measured at various compound concentrations and plotted according to the equation
(§2) and IC50 estimated wherein A is the bottom plateau of the curve i.e. the final minimum y value B is the top of the plateau of the curve i.e. the final maximum y value C is the x value at the middle of the curve. This represents the log EC50 value when A+B=100 D is the slope factor. x is the original known x values. y is the original known y values.

human ETA receptor = target: T2, human ETA receptor (Homo sapiens, UniProt P25101); test: ETA functional assay (FLIPR Ca efflux, Endothelin-1 at EC80); type: cell-based; conditions: CHO cells over-expressing full length human ETA receptor; Endothelin-1 as agonist at EC80
T2 construct: CHO cell stably over-expressing the full length human ETA receptor; expressed in transfected cells
T2 sequence (P25101 21-427): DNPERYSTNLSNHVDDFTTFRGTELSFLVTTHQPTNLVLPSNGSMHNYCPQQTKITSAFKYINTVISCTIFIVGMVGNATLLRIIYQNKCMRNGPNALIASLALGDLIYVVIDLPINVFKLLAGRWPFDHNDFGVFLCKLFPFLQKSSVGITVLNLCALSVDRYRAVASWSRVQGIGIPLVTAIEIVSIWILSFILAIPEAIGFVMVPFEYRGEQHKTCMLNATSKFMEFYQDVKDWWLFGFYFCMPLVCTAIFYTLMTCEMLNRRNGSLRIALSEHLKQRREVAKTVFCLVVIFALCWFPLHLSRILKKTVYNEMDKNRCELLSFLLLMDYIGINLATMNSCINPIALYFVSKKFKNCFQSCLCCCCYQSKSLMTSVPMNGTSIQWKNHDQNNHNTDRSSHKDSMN
Procedure: CHO cell stably over-expressing the full length human ETA receptor was cultured in DMEM (Gibco) with 10% FCS (Hyclone) and selection maintained using 0.5 mg/ml G418 (Gibco). Cell at 70% confluence were trypsnised, resuspended in media and counted. 20,000 cells/well were plated into black polystyrene 384-well plates with transparent bottoms and allowed 16 hours to adhere. The cells were loaded with Flou-4 (TEFLABS, USA) dye in BSS (Gibco) for 1 hour and then washed in HBSS and 0.6 μl of diluted compounds in DMSO added to the cells in 30 μl of HBSS in Multimek liquid handling system (Beckman, USA). The cells were then placed in the Fluorometric Imaging Plate Readers (FLIPR, Molecular Devices, USA) and 20 μl of Endothelin-1 peptide as agonist in HBSS (at EC80) was added in the instrument.
as §1, §2

Compound	IC50 (human AT1 receptor)	IC50 (human ETA receptor)
CCc1nc(C)cc2c1c(CC)nn2Cc1ccc(-c2cc(C)sc2S(=O)(=O)Nc2noc(C)c2C)c(COC)c1 [Example 38, 3-[4-(3,4-Diethyl-6-methyl-pyrazolo[4,3-c]pyridin-1-ylmethyl)-2-methoxymethyl-phenyl]-5-methyl-thiophene-2-sulfonic acid (4,5-dimethyl-isoxazol-3-yl)-amide]	17.2 nM	1040 nM
CCc1cc2c(c(C)n1)c(-c1ccccc1)nn2Cc1ccc(-c2ccsc2S(=O)(=O)Nc2ncc(C)nc2OC)cc1 [Example 34]	189 nM	7040 nM
CCc1cc2c(ccc(=O)n2Cc2ccc(-c3cc(C)sc3S(=O)(=O)Nc3noc(C)c3C)c(F)c2)c(CC)n1 [Example 35, 3-[4-(5,7-Diethyl-2-oxo-2H-[1,6]naphthyridin-1-ylmethyl)-2-fluoro-phenyl]-5-methyl-thiophene-2-sulfonic acid (4,5-dimethyl-isoxazol-3-yl)-amide]	27.6 nM	2570 nM
